Assay results from the supplement of paper PMC12137928.
Where a name gives a salt, the structure may show the parent alone.

Test system: HCT116
Conditions: 72 h
In short: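 Luminescence was read with CellTiter-Glo in HCT116 cells seeded at 250 per well in 1536-well plates. Signals were scaled between vehicle at 0% and positive control at -100%, then pattern-corrected. IC50 and maximal efficacy were obtained by fitting a four-parameter Hill equation.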

Row | SMILES | IC50 cell viability (ICRF193 0 nM) | IC50 cell viability (ICRF193 200 nM)
1 | CC(=O)OCC(CCn1cnc2cnc(N)nc21)COC(C)=O [Famciclovir] | > 45.8 µM | > 45.8 µM
2 | NC(N)=Nc1nc(CSCC/C(N)=N/S(N)(=O)=O)cs1 [Famotidine] | > 45.8 µM | > 45.8 µM
3 | COP(=S)(OC)Oc1ccc(S(=O)(=O)N(C)C)cc1 [Famphur] | > 45.8 µM | > 45.8 µM
4 | O=C1CC[C@H](C(=O)N2CCCCC2)N1 [Fasoracetam] | > 45.8 µM | > 45.8 µM
5 | NC(=O)c1nc(F)cnc1O [Favipiravir] | > 45.8 µM | > 45.8 µM
6 | NC(=O)OCC(COC(N)=O)c1ccccc1 [Felbamate] | > 45.8 µM | > 45.8 µM
7 | NCCCC[C@H](NC(=O)[C@@H]1CCCN1C(=O)[C@@H]1CSSC[C@H](N)C(=O)N[C@@H](Cc2ccccc2)C(=O)N[C@@H](Cc2ccccc2)C(=O)N[C@@H](CCC(N)=O)C(=O)N[C@@H](CC(N)=O)C(=O)N1)C(=O)NCC(N)=O [Felypressin] | > 45.8 µM | > 45.8 µM
8 | CCC(C(=O)OCCN1CCOC(c2ccccc2)C1C)c1ccccc1 (stereo not drawn) [Fenbutrazate] | > 45.8 µM | > 45.8 µM
9 | COP(=S)(OC)Oc1cc(Cl)c(Cl)cc1Cl [Fenchlorphos] | > 45.8 µM | > 45.8 µM
10 | CCCCC(O)c1ccccc1 (stereo not drawn) [Fenipentol] | > 45.8 µM | > 45.8 µM
11 | CC(C)OC(=O)C(C)(C)Oc1ccc(C(=O)c2ccc(Cl)cc2)cc1 [Fenofibrate] | > 45.8 µM | > 45.8 µM
12 | Oc1ccc(C2CNCCc3c2cc(O)c(O)c3Cl)cc1 (stereo not drawn) [Fenoldopam] | > 45.8 µM | > 45.8 µM
13 | CC(Cc1ccc(O)cc1)NCC(O)c1cc(O)cc(O)c1 (stereo not drawn) [Fenoterol hydrobromide] | > 45.8 µM | > 45.8 µM
14 | COP(=S)(OC)Oc1ccc(SC)c(C)c1 [Fenthion] | > 45.8 µM | > 45.8 µM
15 | CC(C)=CCC1C(=O)N(c2ccccc2)N(c2ccccc2)C1=O [Feprazone] | > 45.8 µM | > 45.8 µM
16 | CC(C)(C(=O)O)c1ccc(C(O)CCCN2CCC(C(O)(c3ccccc3)c3ccccc3)CC2)cc1 (stereo not drawn) [Fexofenadine hydrochloride] | > 45.8 µM | > 45.8 µM
17 | NC(=O)[C@@H]1C[C@]2(NC(=O)NC2=O)c2cc(F)ccc2O1 [Fidarestat] | > 45.8 µM | > 45.8 µM
18 | CC(C)(C)NC(=O)[C@H]1CC[C@H]2[C@@H]3CC[C@H]4NC(=O)C=C[C@]4(C)[C@H]3CC[C@]12C [Finasteride] | > 45.8 µM | > 45.8 µM
19 | N#Cc1nn(-c2c(Cl)cc(C(F)(F)F)cc2Cl)c(N)c1[S+]([O-])C(F)(F)F (stereo not drawn) [Fipronil] | > 45.8 µM | > 45.8 µM

Row | SMILES | IC50 cell viability (ICRF193 0 nM) | IC50 cell viability (ICRF193 200 nM)
20 | Cc1cc2nc3c(=O)[nH]c(=O)nc-3n(C[C@H](O)[C@H](O)[C@H](O)COP(=O)(O)OP(=O)(O)OC[C@H]3O[C@@H](n4cnc5c(N)ncnc54)[C@H](O)[C@@H]3O)c2cc1C [Flavin adenine dinucleotide disodium salt hydrate] | > 45.8 µM | > 45.8 µM
21 | CN1CCN(c2c(F)cc3c(=O)c(C(=O)O)cn(CCF)c3c2F)CC1 [Fleroxacin] | > 45.8 µM | > 45.8 µM
22 | CO[C@@]1(NC(=O)CSC(F)F)C(=O)N2C(C(=O)O)=C(CSc3nnnn3CCO)CO[C@@H]21 [Flomoxef] | > 45.8 µM | > 45.8 µM
23 | CCC(=O)c1c(O)cc(O)cc1O [Flopropione] | > 45.8 µM | > 45.8 µM
24 | OC(Cn1cncn1)(Cn1cncn1)c1ccc(F)cc1F [Fluconazole] | > 45.8 µM | > 45.8 µM
25 | Nc1nc(=O)[nH]cc1F [Flucytosine] | > 45.8 µM | > 45.8 µM
26 | Nc1nc(F)nc2c1ncn2[C@@H]1O[C@H](COP(=O)(O)O)[C@@H](O)[C@@H]1O [Fludarabine phosphate] | > 45.8 µM | > 45.8 µM
27 | C[C@]12CCC(=O)C=C1CC[C@H]1[C@@H]3CC[C@](O)(C(=O)CO)[C@@]3(C)C[C@H](O)[C@@]12F [Fludrocortisone] | > 45.8 µM | > 45.8 µM
28 | CC(=O)OCC(=O)[C@@]1(O)[C@H](C)C[C@H]2[C@@H]3C[C@H](F)C4=CC(=O)C=C[C@]4(C)[C@@]3(F)[C@@H](O)C[C@@]21C [Flumethasone acetate] | > 45.8 µM | > 45.8 µM
29 | C[C@@H]1C[C@H]2[C@@H]3C[C@H](F)C4=CC(=O)C=C[C@]4(C)[C@@]3(F)[C@@H](O)C[C@]2(C)[C@@]1(O)C(=O)COC(=O)C(C)(C)C [Flumethasone pivalate] | > 45.8 µM | > 45.8 µM
30 | C[C@@H]1C[C@H]2[C@@H]3C[C@H](F)C4=CC(=O)C=C[C@]4(C)[C@@]3(F)[C@@H](O)C[C@]2(C)[C@@]1(O)C(=O)CO [Flumethasone] | > 45.8 µM | > 45.8 µM
31 | CC1(C)O[C@@H]2C[C@H]3[C@@H]4C[C@H](F)C5=CC(=O)C=C[C@]5(C)[C@H]4[C@@H](O)C[C@]3(C)[C@]2(C(=O)CO)O1 [Flunisolide] | > 45.8 µM | > 45.8 µM
32 | CC1(C)O[C@@H]2C[C@H]3[C@@H]4C[C@H](F)C5=CC(=O)C=C[C@]5(C)[C@@]4(F)[C@@H](O)C[C@]3(C)[C@]2(C(=O)CO)O1 [Fluocinolone acetonide] | > 45.8 µM | > 45.8 µM
33 | CC(=O)OCC(=O)[C@@]12OC(C)(C)O[C@@H]1C[C@H]1[C@@H]3C[C@H](F)C4=CC(=O)C=C[C@]4(C)[C@@]3(F)[C@@H](O)C[C@@]12C [Fluocinonide] | > 45.8 µM | > 45.8 µM
34 | CC(=O)O[C@]1(C(C)=O)CC[C@H]2[C@@H]3C[C@H](C)C4=CC(=O)C=C[C@]4(C)[C@@]3(F)[C@@H](O)C[C@@]21C [Fluorometholone Acetate] | > 45.8 µM | > 45.8 µM
35 | CC(=O)[C@@]1(O)CC[C@H]2[C@@H]3C[C@H](C)C4=CC(=O)C=C[C@]4(C)[C@@]3(F)[C@@H](O)C[C@@]21C [Fluorometholone] | > 45.8 µM | > 45.8 µM
36 | C=C1C[C@H]2[C@@H]3CCC4=CC(=O)C=C[C@]4(C)[C@@]3(F)[C@@H](O)C[C@]2(C)[C@@]1(O)C(=O)COC(C)=O [Fluprednidene acetate] | > 45.8 µM | > 45.8 µM
37 | C[C@]12C=CC(=O)C=C1[C@@H](F)C[C@@H]1[C@@H]2[C@@H](O)C[C@@]2(C)[C@H]1CC[C@]2(O)C(=O)CO [Fluprednisolone] | > 45.8 µM | > 45.8 µM
38 | CC1(C)O[C@@H]2C[C@H]3[C@@H]4C[C@H](F)C5=CC(=O)CC[C@]5(C)[C@H]4[C@@H](O)C[C@]3(C)[C@]2(C(=O)CO)O1 [Flurandrenolide] | > 45.8 µM | > 45.8 µM

Second part, the molecule after the results:

Row | IC50 cell viability (ICRF193 0 nM) | IC50 cell viability (ICRF193 200 nM) | SMILES
39 | > 45.8 µM | > 45.8 µM | Cc1[nH]cnc1C[C@H]1CCc2c(C)c3ccccc3n2C1=O [Fabesetron]
40 | > 45.8 µM | > 45.8 µM | O=S(=O)(c1cccc2cnccc12)N1CCCNCC1 [Fasudil]
41 | > 45.8 µM | > 45.8 µM | COCC(=O)Nc1cc(Sc2ccccc2)ccc1N=C(NC(=O)OC)NC(=O)OC [Febantel]
42 | > 45.8 µM | > 45.8 µM | Cc1nc(-c2ccc(OCC(C)C)c(C#N)c2)sc1C(=O)O [Febuxostat]
43 | > 45.8 µM | > 45.8 µM | COC(=O)Nc1nc2cc(Sc3ccccc3)ccc2[nH]1 [Fenbendazole]
44 | > 45.8 µM | > 45.8 µM | O=C(O)CCC(=O)c1ccc(-c2ccccc2)cc1 [Fenbufen]
45 | > 45.8 µM | > 45.8 µM | CC(C(=O)O)c1cccc(Oc2ccccc2)c1 (stereo not drawn) [Fenoprofen calcium salt dihydrate]
46 | > 45.8 µM | > 45.8 µM | O=C(O)Cc1sc(-c2ccccc2)nc1-c1ccc(Cl)cc1 [Fentiazac]
47 | > 45.8 µM | > 45.8 µM | Cc1ccc(/C=N/n2c(-c3ccccc3)csc2=S)cc1 [Fezatione]
48 | > 45.8 µM | > 45.8 µM | Cc1c(-c2ccccc2)oc2c(C(=O)OCCN3CCCCC3)cccc2c1=O [Flavoxate hydrochloride]
49 | > 45.8 µM | > 45.8 µM | O=C(NCC1CCCCN1)c1cc(OCC(F)(F)F)ccc1OCC(F)(F)F (stereo not drawn) [Flecainide]
50 | > 45.8 µM | > 45.8 µM | O=C(OCC(O)CO)c1ccccc1Nc1ccnc2c(C(F)(F)F)cccc12 (stereo not drawn) [Floctafenine]
51 | > 45.8 µM | > 45.8 µM | CS(=O)(=O)c1ccc([C@@H](O)[C@@H](CF)NC(=O)C(Cl)Cl)cc1 [Florfenicol]
52 | > 45.8 µM | > 45.8 µM | Cc1onc(-c2c(F)cccc2Cl)c1C(=O)N[C@@H]1C(=O)N2[C@@H]1SC(C)(C)[C@@H]2C(=O)O [Flucloxacillin sodium]
53 | > 45.8 µM | > 45.8 µM | O=C(O)c1ccccc1Nc1cccc(C(F)(F)F)c1 [Flufenamic acid]
54 | > 45.8 µM | > 45.8 µM | CCOC(=O)c1ncn2c1CN(C)C(=O)c1cc(F)ccc1-2 [Flumazenil]
55 | > 45.8 µM | > 45.8 µM | Cc1c(Nc2ncccc2C(=O)O)cccc1C(F)(F)F [Flunixin meglumine]
56 | > 45.8 µM | > 45.8 µM | O=C(O)c1ccccc1-c1c2ccc(=O)cc-2oc2cc(O)ccc12 [Fluorescein sodium]
57 | > 45.8 µM | > 45.8 µM | CC(=O)OC(C)OC(=O)C(C)c1ccc(-c2ccccc2)c(F)c1 (stereo not drawn) [Flurbiprofen axetil]
58 | > 45.8 µM | > 45.8 µM | CC(C(=O)O)c1ccc(-c2ccccc2)c(F)c1 (stereo not drawn) [Flurbiprofen]
59 | > 45.8 µM | > 45.8 µM | CC(C)C(=O)Nc1ccc([N+](=O)[O-])c(C(F)(F)F)c1 [Flutamide]
